Source: patent publication US5965598A, “Zinc-phthalocyanines and corresponding conjugates, their preparation and use in photodynamic therapy and as diagnostic agents” (priority 1997, dated 1999)

Assays:
E. Coli (strain 04) = test: Photoinactivation of microorganisms: E. coli; type: cell-based, Escherichia coli (strain 04); conditions: footnote below the P. aeruginosa / E. coli table
Protocol: (§1) The experimental protocol was the following:
(§2) Incubation in dark at 37° C. (5 min to 1 hour).

Branhamella catarrhalis = test: Photoinactivation of microorganisms: Branhamella catarrhalis; type: cell-based; conditions: footnote
Protocol: as §1, §2

[1] = tested on: Staphylococcus aureus (ATCC 6538P); test: Photoinactivation of microorganisms: Staphylococcus aureus; type: cell-based; conditions: 1 μM; 15 mW/cm2, 30 min
Protocol: as §1, §2

For `[Zn+2].c1ccc2c(c1)-c1nc-2nc2[n-]c(nc3nc([n-]c4nc(n1)-c1ccccc1-4)-c1ccccc1-3)c1ccccc21` [ZnPC, ZnPhthalocyanine], the “Photoinactivation activity (in words)” value (E. Coli (strain 04)) was “not active”, the “Photoinactivation activity (in words)” value (Branhamella catarrhalis) was “not active” and the Cell mortality [1] was 99.99.
